Laboratory results from ChEMBL document CHEMBL1142485, “Axial chirality and affinity at the GABA(A) receptor of pyrimido[1,2-a][1,4]benzodiazepines and related compounds” (Bioorg Med Chem, 2008).
Values joined by “and” are separate entries in the source; they are usually repeats but may differ in a detail not shown here. Equal entries are not always repeated.

Target: not listed separately
Experiment: Displacement of [3H]flunitrazepam from GABAA benzodiazepine receptor in rat brain membrane
Assay type: cell membranes

Structure (SMILES)	IC50
Cc1cc(=O)n2c(n1)CN=C(c1ccccc1)c1cc(Cl)ccc1-2	93.6 nM and 394 nM
CN1C(=O)CN=C(c2ccccc2)c2cc(Cl)ccc21 [DIAZEPAM]	21.2 nM
Cc1nnc2n1-c1ccc(Cl)cc1C(c1ccccc1Cl)=NC2 [TRIAZOLAM]	1.54 nM
Cc1cc(=O)nc2n1-c1ccc(Cl)cc1C(c1ccccc1Cl)=NC2	8.77 nM and 1.5 nM and 4.35 nM
Clc1ccc2c(c1)C(c1ccccc1)=NCc1nncn1-2 [ESTAZOLAM]	46.6 nM

Species: Rattus norvegicus
Experiment: Displacement of [3H]flunitrazepam from GABAA benzodiazepine receptor in rat brain membrane at 10 uM
Assay type: cell membranes

Structure (SMILES)	Activity
Cc1cc(=O)n2c(n1)CC/N=C(/c1ccccc1)c1cc(Cl)ccc1-2	-18%
Cc1cc(=O)n2c(n1)CN=C(c1ccccc1)c1cc(Cl)ccc1-2	17%
Cc1cc(=O)nc2n1-c1ccc(Cl)cc1/C(c1ccccc1)=N\CC2	24%
